# Source: the Kinase Knowledgebase extract (Sharma et al. 2016)
# Molecular target: PIK3CG (human) (UniProt P48736)
# Test: Inhibition of PIK3CG Kinase Activity
# Sequence of PIK3CG (human) (P48736 whole entry, looked up): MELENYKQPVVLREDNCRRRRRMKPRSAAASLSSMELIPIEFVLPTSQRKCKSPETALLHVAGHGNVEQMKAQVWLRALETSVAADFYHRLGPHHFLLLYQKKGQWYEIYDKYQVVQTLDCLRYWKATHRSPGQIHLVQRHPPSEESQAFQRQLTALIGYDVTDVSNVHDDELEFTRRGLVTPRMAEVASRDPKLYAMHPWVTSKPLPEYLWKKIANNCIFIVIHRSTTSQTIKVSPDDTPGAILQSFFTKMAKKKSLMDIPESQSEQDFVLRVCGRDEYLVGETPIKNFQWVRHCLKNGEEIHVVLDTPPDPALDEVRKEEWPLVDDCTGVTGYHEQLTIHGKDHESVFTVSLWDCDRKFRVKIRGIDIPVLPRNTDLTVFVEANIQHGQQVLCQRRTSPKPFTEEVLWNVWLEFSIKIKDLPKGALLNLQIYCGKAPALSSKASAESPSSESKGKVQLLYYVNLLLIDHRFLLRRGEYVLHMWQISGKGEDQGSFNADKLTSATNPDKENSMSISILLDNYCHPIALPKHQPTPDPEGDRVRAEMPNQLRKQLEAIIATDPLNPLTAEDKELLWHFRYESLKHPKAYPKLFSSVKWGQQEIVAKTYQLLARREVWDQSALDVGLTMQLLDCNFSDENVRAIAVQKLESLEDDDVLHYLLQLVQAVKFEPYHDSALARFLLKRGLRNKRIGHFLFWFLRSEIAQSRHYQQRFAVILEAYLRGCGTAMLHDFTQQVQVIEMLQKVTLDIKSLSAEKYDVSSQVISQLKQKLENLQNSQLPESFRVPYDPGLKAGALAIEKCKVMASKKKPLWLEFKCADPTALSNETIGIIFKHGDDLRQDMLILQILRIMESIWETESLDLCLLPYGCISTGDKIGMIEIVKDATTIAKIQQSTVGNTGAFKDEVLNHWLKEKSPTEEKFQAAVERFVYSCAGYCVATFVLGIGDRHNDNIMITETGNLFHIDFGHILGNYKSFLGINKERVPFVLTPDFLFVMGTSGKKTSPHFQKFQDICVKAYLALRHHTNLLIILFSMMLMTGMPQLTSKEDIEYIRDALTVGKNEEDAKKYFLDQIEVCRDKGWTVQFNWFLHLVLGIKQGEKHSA
row,Compound,Ki [µM]
1,Cc1cc(-c2cncc(Cl)c2)nc2c1C(=O)N(c1cnn(CC#N)c1)C2,< 0.1
2,Cc1cc(-c2cncc(OC(C)C)c2)nc2c1C(=O)N(c1cnn(CC(F)(F)F)c1)C2(C)C,< 0.1
3,COc1cncc(-c2cc(C)c3c(n2)C(C)(O)N(c2cnn(CC(F)(F)F)c2)C3=O)c1 (stereo unspecified),< 0.1
4,CCn1ccc(N2Cc3nc(-c4cnc(OC)c(OCC(F)F)c4)cc(C)c3C2=O)n1,< 0.1
5,Cc1cc(-c2cncc(OCC(F)(F)F)c2)nc2c1C(=O)N(c1cnn(CC#N)c1)C2(C)C,< 0.1
6,COc1cc(-c2ccc3c(n2)[C@@H](C)N(c2ccnc(CC#N)c2)C3=O)cnc1OC,< 0.1
7,COc1cc(-c2ccc3c(n2)C(C)N(c2ccc(N4CCC(O)C4)nc2)C3=O)cnc1OC (stereo unspecified),0.1 to 0.49
8,C#CCn1cc(N2Cc3cc(-c4cnc(OC)c(OC)c4)ccc3C2=O)cn1,< 0.1
9,Cc1cc(-c2cncc(OCC(F)F)c2)nc2c1C(=O)N(c1cnn(CC(F)F)c1)C2,< 0.1
10,CCn1cc(N2Cc3nc(-c4cnc(OC)c(OC(F)F)c4)cc(C)c3C2=O)cn1,< 0.1
11,COc1ncc(-c2cc(C)c3c(n2)CN(c2cnn(CC(F)(F)F)c2)C3=O)cc1OC(C)C,< 0.1
12,CCn1cc(N2Cc3nc(-c4cnc(OC)c(OC(F)F)c4)ccc3C2=O)cn1,< 0.1
13,CCn1cc(N2Cc3cc(-c4ccc(OC)c(OC)n4)ccc3C2=O)cn1,0.1 to 0.49
14,COc1cc(-c2ccc3c(c2)CN(c2cncc(CC#N)c2)C3=O)cnc1OC,< 0.1
15,COc1cc(-c2cc(C)c3c(c2)CN(c2cnn([C@H](CO)C(F)(F)F)c2)C3=O)cnc1OC,< 0.1
16,COCCCOc1cc(-c2cc(C)c3c(n2)CN(c2cnn(CC(F)(F)F)c2)C3=O)cnc1OC,< 0.1
17,CCn1cc(N2Cc3nc(-c4cnc(OCCOC)c(OC)c4)cc(C)c3C2=O)cn1,< 0.1
18,COc1cc(-c2cc(C)c3c(c2)CN(c2cnn([C@@H](CO)C(F)(F)F)c2)C3=O)cnc1OC,< 0.1
19,COc1cc(-c2cc(C)c3c(n2)[C@@]2(CCCO2)N(c2cnn(CC(F)(F)F)c2)C3=O)cnc1OC(C)C,< 0.1
20,COc1cc(-c2cc(C)c3c(n2)C(O)(C2CC2)N(c2cnn(CC(F)(F)F)c2)C3=O)cnc1OC (stereo unspecified),< 0.1
21,CC[C@]1(OC)c2nc(-c3cnc(OC)c(OC)c3)cc(C)c2C(=O)N1c1cnn(CC(F)(F)F)c1,< 0.1
22,COc1cc(-c2cc(C)c3c(n2)C(OC(C)C)N(c2cnn(CC(F)(F)F)c2)C3=O)cnc1OC (stereo unspecified),< 0.1
23,COc1ncc(-c2cc(C)c3c(n2)C(C)N(c2cnn(CC(F)F)c2)C3=O)cc1C(=O)O (stereo unspecified),< 0.1
24,COc1cc(-c2ccc3c(c2)CN(c2cnn([C@H](C)C#N)c2)C3=O)cnc1OC,< 0.1

row,Compound,Ki [µM]
1,COCCOCCOc1ncc(-c2cc(C)c3c(n2)CN(c2cnn(CC(F)(F)F)c2)C3=O)cc1OC,< 0.1
2,COc1cc(-c2cc(C)c3c(n2)C(O[C@H]2CCOC2)N(c2cnn(CC(F)(F)F)c2)C3=O)cnc1OC (stereo partly specified),< 0.1
3,COc1cc(-c2ccc3c(n2)C(C)N(c2ccnc(C(C)(C)C#N)c2)C3=O)cnc1OC (stereo unspecified),0.1 to 0.49
4,COc1cc(-c2cc(C)c3c(n2)CN(c2cccc(C4(C#N)CC4)c2)C3=O)cnc1OC,< 0.1
5,COc1cc(-c2cc(C)c3c(n2)CN(c2cncc(CC#N)c2)C3=O)cnc1OC,< 0.1
6,COCc1cc(N2Cc3nc(-c4cnc(OC)c(OC)c4)ccc3C2=O)nn1C,< 0.1
7,COc1ccc(-c2cc(C)c3c(n2)CN(c2cnn(CC#N)c2)C3=O)cc1OC,< 0.1
8,COc1cc(-c2ccc3c(c2)CN(c2cscn2)C3=O)cnc1OC,0.1 to 0.49
9,COc1cc(-c2ccc3c(n2)C(C)N(c2cn(CC(F)(F)F)cn2)C3=O)cnc1OC (stereo unspecified),< 0.1
10,Cc1cc(-c2cncc(OC(F)F)c2)nc2c1C(=O)N(c1ccnc(OCC(F)F)c1)C2,< 0.1
11,COc1cc(-c2ccc3c(n2)CN(c2cnn(Cc4ccc(Cl)nc4)c2)C3=O)cnc1OC,< 0.1
12,COc1cc(-c2cc(C)c3c(n2)CN(c2cnccn2)C3=O)cnc1OC,< 0.1
13,COc1ncc(-c2cc(C)c3c(n2)CN(c2cnn(CC(F)(F)F)c2)C3=O)cc1F,< 0.1
14,COc1cc(-c2cc(C)c3c(n2)CN(c2ccc(C)s2)C3=O)cnc1OC,< 0.1
15,CCn1nc(N2Cc3cc(-c4cnc(OC)c(OC)c4)ccc3C2=O)cc1C,0.1 to 0.49
16,Cc1cc(-c2cncc(OC(F)F)c2)nc2c1C(=O)N(c1cnn(CC(F)(F)F)c1)C2(C)O (stereo unspecified),< 0.1
17,COc1cc(-c2cc(C)c3c(n2)C(C)(C)N(c2cnn(CC(F)(F)F)c2)C3=O)cnc1OC(C)C,< 0.1
18,COc1cc(-c2ccc3c(n2)CN(c2ccc(=O)n(C)c2)C3=O)cnc1OC,0.1 to 0.49
19,COc1cc(-c2ccc3c(n2)CN(c2cncc(CC#N)c2)C3=O)cnc1OC,< 0.1
20,CCOC1(C)c2nc(-c3cnc(OC)c(OC)c3)cc(C)c2C(=O)N1c1cnn(CC(F)(F)F)c1 (stereo unspecified),< 0.1
21,COc1cc(-c2ccc3c(n2)CN(c2cnn(CC(C)O)c2)C3=O)cnc1OC (stereo unspecified),< 0.1
22,Cc1cc(-c2cnc(C)c(C(=O)O)c2)nc2c1C(=O)N(c1cnn(CC(F)(F)F)c1)C2(C)C,< 0.1
23,COc1ncc(-c2cc(C)c3c(n2)CN(c2cnn(C)c2)C3=O)cc1OC(F)F,< 0.1
24,COc1cc(-c2ccc3c(n2)C(C)(C)N(c2cn[nH]c2)C3=O)cnc1OC,< 0.1

row,Compound,Ki [µM]
1,CCn1cc(N2Cc3nc(-c4cnc(OC)c(OC)c4)ccc3C2=O)cn1,< 0.1
2,Cc1cc(-c2cncc(OC(F)F)c2)nc2c1C(=O)N(c1cnn(C(C)(C)C#N)c1)C2C (stereo unspecified),< 0.1
3,COc1cc(-c2cc(C)c3c(n2)CN(c2nccs2)C3=O)cnc1OC,< 0.1
4,CCn1ccc(N2C(=O)c3c(C)cc(-c4cncc(OC(F)F)c4)nc3[C@H]2C)n1,< 0.1
5,COc1cc(-c2cc(C)c3c(n2)[C@H](C)N(c2cnn(C[C@@H](C)O)c2)C3=O)cnc1OC,< 0.1
6,CCn1cc(N2Cc3nc(-c4cnc(OC)c(OCC5CC5)c4)cc(C)c3C2=O)cn1,< 0.1
7,CCOc1ncc(-c2cc(C)c3c(n2)CN(c2ccon2)C3=O)cc1OC,< 0.1
8,Cc1cc(-c2cncc(OCC(F)F)c2)nc2c1C(=O)N(c1cnn(CC(F)F)c1)C2C (stereo unspecified),< 0.1
9,COc1cc(-c2ccc3c(c2)CN(c2cccnc2)C3=O)cnc1OC,0.1 to 0.49
10,Cc1cc(-c2cncc(OCC(F)(F)F)c2)nc2c1C(=O)N(c1cnn(CC(F)(F)F)c1)C2C (stereo unspecified),< 0.1
11,CCCCOCCOc1cncc(-c2cc(C)c3c(n2)CN(c2cnn(CC(F)(F)F)c2)C3=O)c1,0.1 to 0.49
12,COc1cncc(-c2cc(C)c3c(n2)C2(CC2)N(c2cnn(CC(F)(F)F)c2)C3=O)c1,< 0.1
13,CNC(=O)c1cncc(-c2cc(C)c3c(n2)CN(c2cnn(CC(F)(F)F)c2)C3=O)c1,< 0.1
14,COc1cc(-c2ccc3c(n2)CN(c2ccc(=O)n(CC#N)c2)C3=O)cnc1OC,< 0.1
15,CCOc1cc(-c2ccc3c(n2)CN(c2cnn(CC#N)c2)C3=O)cnc1OC,< 0.1
16,COc1cc(-c2ccc3c(n2)C(C)N(c2csc(SC)n2)C3=O)cnc1OC (stereo unspecified),< 0.1
17,COc1cncc(-c2cc(C)c3c(n2)C2(CC(O)C2)N(c2cnn(CC(F)(F)F)c2)C3=O)c1 (stereo unspecified),< 0.1
18,COc1cc(-c2cc(C)c3c(n2)C(O)(OC)N(c2cnn(CC(F)(F)F)c2)C3=O)cnc1OC (stereo unspecified),< 0.1
19,CCn1cc(N2C(=O)c3ccc(-c4cnc(OC)c(OC(F)F)c4)nc3C2C)cn1 (stereo unspecified),< 0.1
20,COc1cc(-c2ccc3c(n2)CN(c2cnn(CC(N)=O)c2)C3=O)cnc1OC,< 0.1
21,COc1cncc(-c2cc(C)c3c(n2)C(C)N(c2ccn(C)n2)C3=O)c1 (stereo unspecified),< 0.1
22,Cc1cc(-c2cncc(OC(F)F)c2)cc2c1C(=O)N(c1cnn(CC(F)(F)F)c1)C2C (stereo unspecified),< 0.1
23,COc1cncc(-c2cc(C)c3c(n2)C2(CN(C(C)=O)C2)N(c2cnn(CC(F)(F)F)c2)C3=O)c1,< 0.1
24,CCOc1ccc(N2Cc3nc(-c4cnc(OC)c(OC)c4)ccc3C2=O)cn1,0.1 to 0.49

row,Compound,Ki [µM]
1,COc1cccc(-c2cc(C)c3c(n2)CN(c2cnn(CC(F)(F)F)c2)C3=O)n1,< 0.1
2,Cc1cc(-c2cncc(OC(F)F)c2)nc2c1C(=O)N(c1cnn(C[C@@H](C)O)c1)C2,< 0.1
3,Cc1cc(-c2cncc(OCC(F)F)c2)nc2c1C(=O)N(c1cnn(CC(F)(F)F)c1)C2O (stereo unspecified),< 0.1
4,CCc1cc(N2Cc3nc(-c4cnc(OC)c(OC)c4)cc(C)c3C2=O)n[nH]1,< 0.1
5,COc1cc(-c2ccc3c(c2)CN(c2ncc(C)s2)C3=O)cnc1OC,0.1 to 0.49
6,COc1cc(-c2cc(C)c3c(n2)CN(c2cnn(CC(F)(F)F)c2)C3=O)ccc1F,< 0.1
7,COc1cc(-c2cc(C)c3c(n2)CN(c2cncc(OC(F)F)c2)C3=O)cnc1OC,< 0.1
8,COc1cc(-c2cc3c(c(C)n2)C(=O)N(c2cnn(CC(F)(F)F)c2)C3C)cnc1OC (stereo unspecified),< 0.1
9,COc1cc(-c2ccc3c(n2)CN(c2cnn([C@@H](C)C#N)c2)C3=O)cnc1OC,< 0.1
10,COc1cc(-c2ccc3c(n2)CN(c2ccc(N4CCNCC4)nc2)C3=O)cnc1OC,0.1 to 0.49
11,Cc1cc(-c2cncc(S(=O)(=O)C(C)C)c2)nc2c1C(=O)N(c1cnn(CC(F)(F)F)c1)C2(C)C,< 0.1
12,COc1cc(-c2ccc3c(n2)C(C)N(c2ccnc(CC#N)c2)C3=O)cnc1OC (stereo unspecified),< 0.1
13,COCCOc1cc(-c2cc(C)c3c(n2)CN(c2cnn(CC(F)(F)F)c2)C3=O)cnc1OC,< 0.1
14,COc1cc(-c2cc(C)c3c(n2)CN(c2ccnc(F)c2)C3=O)cnc1OC,< 0.1
15,COc1cc(-c2ccc3c(n2)CN(c2cnn(CC(O)CF)c2)C3=O)cnc1OC (stereo unspecified),< 0.1
16,COc1cc(-c2ccc3c(n2)[C@H](C)N(c2ccn(C[C@@H](C)O)n2)C3=O)cnc1OC,< 0.1
17,COc1ncc(-c2ccc3c(n2)[C@H](C)N(c2cnn(CC(F)(F)F)c2)C3=O)cc1O,< 0.1
18,COCCOc1ncc(-c2cc(C)c3c(n2)[C@@H](C)N(c2ccn(C)n2)C3=O)cc1OC,< 0.1
19,Cc1cc(-c2cncc(OC(C)C)c2)nc2c1C(=O)N(c1cnn(CC(F)(F)F)c1)C2,< 0.1
20,COc1cc(-c2cc(C)c3c(n2)CN(c2ccnc(OC(F)F)c2)C3=O)cnc1OC,< 0.1
21,COc1cc(-c2cc(C)c3c(n2)C(C)N(c2cnn(CC(F)(F)F)c2)C3=O)cnc1OC(C)C (stereo unspecified),< 0.1
22,COCc1cc(N2Cc3nc(-c4cnc(OC)c(OC)c4)ccc3C2=O)nn1C[C@H](C)O,< 0.1
23,COc1cc(-c2ccc3c(n2)CN(c2ccc(CN4CCOCC4)nc2)C3=O)cnc1OC,0.1 to 0.49
24,COc1cc(-c2ccc3c(n2)CN(c2ccc(N(C)CCC4OCCO4)nc2)C3=O)cnc1OC,0.1 to 0.49
